From PubChem BioAssay (NCI)
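Tested at 5 concentrations; 48 h exposure; 96-well plates; endpoints linearly interpolated, else capped at highest concentration. TGI is the concentration that stops growth completely.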

Columns and labels:
Assay in all cases: NCI-60 cell line screen, 48 h
HOP-62 NSCLC = test system: HOP-62 NSCLC
KM12 colon = test system: KM12 colon
SW-620 colon = test system: SW-620 colon
SK-OV-3 ovarian = test system: SK-OV-3 ovarian
SF-295 CNS = test system: SF-295 CNS
EKVX NSCLC = test system: EKVX NSCLC
COLO 205 colon = test system: COLO 205 colon
SR leukemia = test system: SR leukemia
IGROV1 ovarian = test system: IGROV1 ovarian
HCT-15 colon = test system: HCT-15 colon
NCI-H23 lung = test system: NCI-H23 lung
OVCAR-4 ovarian = test system: OVCAR-4 ovarian
MOLT-4 leukemia = test system: MOLT-4 leukemia
U251 CNS = test system: U251 CNS
CAKI-1 renal = test system: CAKI-1 renal
SF-268 CNS = test system: SF-268 CNS
UO-31 renal = test system: UO-31 renal
MCF7 breast = test system: MCF7 breast
TK-10 renal = test system: TK-10 renal
SNB-19 CNS = test system: SNB-19 CNS
OVCAR-8 ovarian = test system: OVCAR-8 ovarian
NCI/ADR-RES ovarian = test system: NCI/ADR-RES ovarian
HCC-2998 colon = test system: HCC-2998 colon
HCT-116 colon = test system: HCT-116 colon
MDA-MB-231 breast = test system: MDA-MB-231 breast
PC-3 prostate = test system: PC-3 prostate
HT29 colon = test system: HT29 colon
MDA-N = test system: MDA-N
HL-60(TB) leukemia = test system: HL-60(TB) leukemia
SK-MEL-28 melanoma = test system: SK-MEL-28 melanoma
NCI-H460 lung = test system: NCI-H460 lung
OVCAR-5 ovarian = test system: OVCAR-5 ovarian
RPMI-8226 leukemia = test system: RPMI-8226 leukemia
OVCAR-3 ovarian = test system: OVCAR-3 ovarian
CCRF-CEM leukemia = test system: CCRF-CEM leukemia
K-562 leukemia = test system: K-562 leukemia
SNB-75 CNS = test system: SNB-75 CNS
DU-145 prostate = test system: DU-145 prostate
SK-MEL-5 melanoma = test system: SK-MEL-5 melanoma
A549 NSCLC = test system: A549 NSCLC
LOX IMVI melanoma = test system: LOX IMVI melanoma
UACC-257 melanoma = test system: UACC-257 melanoma
HS 578T breast = test system: HS 578T breast
T-47D breast = test system: T-47D breast
ACHN renal = test system: ACHN renal
SK-MEL-2 melanoma = test system: SK-MEL-2 melanoma
SN12C renal = test system: SN12C renal
786-0 renal = test system: 786-0 renal
A498 renal = test system: A498 renal
MALME-3M melanoma = test system: MALME-3M melanoma

CC1CN=C(N(C(=O)Nc2ccccc2)c2ccccc2)S1 (stereo not given) was tested, and the TGI (HOP-62 NSCLC) was greater than 100 µM, the TGI (KM12 colon) was greater than 100 µM and the TGI (SW-620 colon) was greater than 100 µM. The TGI (SK-OV-3 ovarian) was greater than 100 µM, the TGI (SF-295 CNS) was greater than 100 µM and the TGI (EKVX NSCLC) was greater than 100 µM. It also gave a TGI (COLO 205 colon) greater than 100 µM, a TGI (SR leukemia) of 81.5 µM and a TGI (IGROV1 ovarian) greater than 100 µM. For the same compound, the TGI (HCT-15 colon) was greater than 100 µM, the TGI (NCI-H23 lung) was greater than 100 µM and the TGI (OVCAR-4 ovarian) was greater than 100 µM. It also gave a TGI (MOLT-4 leukemia) of 61.6 µM, a TGI (U251 CNS) greater than 100 µM and a TGI (CAKI-1 renal) greater than 100 µM. The TGI (SF-268 CNS) was greater than 100 µM, the TGI (UO-31 renal) was greater than 100 µM and the TGI (MCF7 breast) was 49.7 µM. It also gave a TGI (TK-10 renal) of 94.2 µM, a TGI (SNB-19 CNS) greater than 100 µM and a TGI (OVCAR-8 ovarian) greater than 100 µM. It also gave a TGI (NCI/ADR-RES ovarian) of 71.5 µM, a TGI (HCC-2998 colon) greater than 100 µM and a TGI (HCT-116 colon) greater than 100 µM. For the same compound, the TGI (MDA-MB-231 breast) was greater than 100 µM, the TGI (PC-3 prostate) was greater than 100 µM and the TGI (HT29 colon) was 36.6 µM. For the same compound, the TGI (MDA-N) was 48.2 µM, the TGI (HL-60(TB) leukemia) was 66.4 µM and the TGI (SK-MEL-28 melanoma) was 31.9 µM. It also gave a TGI (NCI-H460 lung) greater than 100 µM, a TGI (OVCAR-5 ovarian) greater than 100 µM and a TGI (RPMI-8226 leukemia) of 67.9 µM. It also gave a TGI (OVCAR-3 ovarian) of 82.2 µM, a TGI (CCRF-CEM leukemia) of 64 µM and a TGI (K-562 leukemia) greater than 100 µM. For the same compound, the TGI (SNB-75 CNS) was greater than 100 µM, the TGI (DU-145 prostate) was greater than 100 µM and the TGI (SK-MEL-5 melanoma) was 31.8 µM. For the same compound, the TGI (A549 NSCLC) was greater than 100 µM, the TGI (LOX IMVI melanoma) was 37.4 µM and the TGI (UACC-257 melanoma) was 64.7 µM. The TGI (HS 578T breast) was greater than 100 µM, the TGI (T-47D breast) was greater than 100 µM and the TGI (ACHN renal) was greater than 100 µM. For the same compound, the TGI (SK-MEL-2 melanoma) was 40.5 µM, the TGI (SN12C renal) was 62.9 µM and the TGI (786-0 renal) was greater than 100 µM. It also gave a TGI (A498 renal) of 51.2 µM and a TGI (MALME-3M melanoma) of 58.8 µM.
